Measurements: patent US9789181B2, “PAN-DR binding polypeptides and uses thereof” (Epimmune Inc., priority 2009, dated 2017)
Where no end group is shown, it is not given here.

Columns and labels:
HLA DRB1 *0101 = HLA DRB1 *0101 (Homo sapiens, UniProt P01903+P01911, A100R/D57E/F55L/F60I/F76Y/I96L/L162R/M171V/P40L/Q125E/R42F/V115G/Y59C); assay: IC50nM to purified HLA | DRB1 *0101
Experimental: (§1) Table printed on a drawing sheet, FIG. 1 (contd.)
(§2) Head of the field: IC50nM to purified HLA | DRB1 *0101
(§3) First copying reader's note: Continued from the preceding sheet of FIG. 1; decimal commas are used, the analog names give the substituted residues and positions in PADRE, and some values are printed in italics or bold and some SEQ ID NOs bold and underlined without a legend on this sheet.
(§4) Where the first naming reader finds the target: head: IC50nM to purified HLA | DRB1 *0101

HLA DRB1 *0301 = HLA DRB1 *0301 (Homo sapiens, UniProt P01903+P01911, A100K/A102G/A103R/A169T/F55Y/I96L/K41T/L162R/M171V/P40S/Q125H/Q178H/Q39Y/R42S/S66N/T106N/T262R/W38E/Y61H); assay: IC50nM to purified HLA | DRB1 *0301
HLA DRB1 *0301, sequence (P01903 26-254 limits assumed, other chains not shown): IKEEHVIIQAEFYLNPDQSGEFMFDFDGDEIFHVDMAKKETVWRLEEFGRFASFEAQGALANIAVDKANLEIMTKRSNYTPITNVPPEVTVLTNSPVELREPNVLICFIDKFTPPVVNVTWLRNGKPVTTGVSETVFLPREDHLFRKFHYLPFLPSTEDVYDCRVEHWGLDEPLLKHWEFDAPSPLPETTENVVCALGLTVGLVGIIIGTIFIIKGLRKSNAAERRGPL
Experimental: as §1
(§5) Head of the field: IC50nM to purified HLA | DRB1 *0301
as §3
(§6) Where the first naming reader finds the target: head: IC50nM to purified HLA | DRB1 *0301

HLA DRB1 *0802 = HLA DRB1 *0802 (Homo sapiens, UniProt P01903+P01911, A100R/A103L/A169T/F76Y/H45Y/I96F/K41T/L162R/M171V/P40S/Q125H/Q178H/Q39Y/Q99D/R218S/R42G/S66Y/V115G/W38E); assay: IC50nM to purified HLA | DRB1 *0802
Experimental: as §1
(§7) Head of the field: IC50nM to purified HLA | DRB1 *0802
as §3
(§8) Where the first naming reader finds the target: head: IC50nM to purified HLA | DRB1 *0802

HLA DRB1 *1101 = HLA DRB1 *1101 (Homo sapiens, UniProt P01903+P01911, A100R/A169T/A87E/I96F/K41T/L162R/M171V/P40S/Q125H/Q178H/Q39Y/Q99D/R42S/S66Y/T262R/V115G/W38E); assay: IC50nM to purified HLA | DRB1 *1101
HLA DRB1 *1101, sequence (P01903 26-254 limits assumed, other chains not shown): as above
Experimental: as §1
Head of the field: IC50nM to purified HLA | DRB1 *1101
as §3
Where the first naming reader finds the target: head: IC50nM to purified HLA | DRB1 *1101

HLA DRB1 *1501 = HLA DRB1 *1501 (Homo sapiens, UniProt P01903+P01911); assay: IC50nM to purified HLA | DRB1 *1501
Experimental: as §1
(§9) Head of the field: IC50nM to purified HLA | DRB1 *1501
as §3
(§10) Where the first naming reader finds the target: head: IC50nM to purified HLA | DRB1 *1501

HLA DRB4 *0101 = HLA DRB4 *0101 (Homo sapiens, UniProt P01903+P13762, G164S); assay: IC50nM to purified HLA | DRB4 *0101
HLA DRB4 *0101, sequence (P01903 26-254 limits assumed): as the sequence (P01903 26-254 limits assumed, other chains not shown) above
HLA DRB4 *0101, sequence (P13762 whole entry G164S): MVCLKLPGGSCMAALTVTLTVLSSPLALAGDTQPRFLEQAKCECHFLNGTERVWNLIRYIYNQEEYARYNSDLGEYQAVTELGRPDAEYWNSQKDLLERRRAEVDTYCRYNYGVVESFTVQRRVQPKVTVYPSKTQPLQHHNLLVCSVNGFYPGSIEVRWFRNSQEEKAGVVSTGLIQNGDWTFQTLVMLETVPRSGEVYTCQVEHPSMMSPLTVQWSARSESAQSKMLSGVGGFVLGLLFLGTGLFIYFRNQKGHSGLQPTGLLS
Experimental: as §1
(§11) Head of the field: IC50nM to purified HLA | DRB4 *0101
as §3
(§12) Where the first naming reader finds the target: head: IC50nM to purified HLA | DRB4 *0101

HLA DRB1 *0405 = HLA DRB1 *0405 (Homo sapiens, UniProt P01903+P01911, A100R/A169T/D86S/F76Y/I96L/K127E/L162R/M171V/N62H/P40V/Q125Y/R42H/S133A/S149N/S66Y/V115G/V209L/W38E); assay: IC50nM to purified HLA | DRB1 *0405
Experimental: as §1
(§13) Head of the field: IC50nM to purified HLA | DRB1 *0405
as §3
(§14) Where the first naming reader finds the target: head: IC50nM to purified HLA | DRB1 *0405

HLA DRB1 *0401 = HLA DRB1 *0401 (Homo sapiens, UniProt P01903+P01911, A100K/A169T/F76Y/I96L/K127E/L162R/M171V/N62H/P40V/Q125Y/R42H/S133A/S149N/S66Y/V115G/V209L/W38E); assay: IC50nM to purified HLA | DRB1 *0401
Experimental: as §1
(§15) Head of the field: IC50nM to purified HLA | DRB1 *0401
as §3
(§16) Where the first naming reader finds the target: head: IC50nM to purified HLA | DRB1 *0401

HLA DRB1 *0404 = HLA DRB1 *0404 (Homo sapiens, UniProt P01903+P01911, A100R/A169T/F76Y/I96L/K127E/L162R/M171V/N62H/P40V/Q125Y/R42H/S133A/S149N/S66Y/V209L/W38E); assay: IC50nM to purified HLA | DRB1 *0404
Experimental: as §1
(§17) Head of the field: IC50nM to purified HLA | DRB1 *0404
as §3
(§18) Where the first naming reader finds the target: head: IC50nM to purified HLA | DRB1 *0404

HLA DRB1 *0901 = HLA DRB1 *0901 (Homo sapiens, UniProt P01903+P01911, A100R/A103E/D57H/D86V/F55Y/F60I/F76Y/I96F/K127E/L162R/M171V/P40D/Q125H/Q99R/R33Q/R42F/S133A/S66N/T210M/V115G/W38K/Y107V/Y59G/Y89S); assay: IC50nM to purified HLA | DRB1 *0901
Experimental: as §1
Head of the field: IC50nM to purified HLA | DRB1 *0901
as §3
Where the first naming reader finds the target: head: IC50nM to purified HLA | DRB1 *0901

purified HLA DRB1 *0101 = purified HLA DRB1 *0101 (Homo sapiens, UniProt P01903+P01911, A100R/D57E/F55L/F60I/F76Y/I96L/L162R/M171V/P40L/Q125E/R42F/V115G/Y59C); assay: IC50nM to purified HLA | DRB1 *0101
Experimental: (§19) Table printed on a drawing sheet, FIG. 1
as §2
(§20) First copying reader's note: The comma is the decimal sign and the point a thousands separator (e.g. 21.831); some values are printed bold or italic and some SEQ ID NOs underlined, with no legend on the sheet.
as §4

purified HLA DRB1 *0301 = purified HLA DRB1 *0301 (Homo sapiens, UniProt P01903+P01911, A100K/A102G/A103R/A169T/F55Y/I96L/K41T/L162R/M171V/P40S/Q125H/Q178H/Q39Y/R42S/S66N/T106N/T262R/W38E/Y61H); assay: IC50nM to purified HLA | DRB1 *0301
purified HLA DRB1 *0301, sequence (P01903 26-254 limits assumed, other chains not shown): as the sequence (P01903 26-254 limits assumed, other chains not shown) above
Experimental: as §19, §5, §20, §6

purified HLA DRB1 *0401 = purified HLA DRB1 *0401 (Homo sapiens, UniProt P01903+P01911, A100K/A169T/F76Y/I96L/K127E/L162R/M171V/N62H/P40V/Q125Y/R42H/S133A/S149N/S66Y/V115G/V209L/W38E); assay: IC50nM to purified HLA | DRB1 *0401
Experimental: as §19, §15, §20, §16

purified HLA DRB1 *0404 = purified HLA DRB1 *0404 (Homo sapiens, UniProt P01903+P01911, A100R/A169T/F76Y/I96L/K127E/L162R/M171V/N62H/P40V/Q125Y/R42H/S133A/S149N/S66Y/V209L/W38E); assay: IC50nM to purified HLA | DRB1 *0404
Experimental: as §19, §17, §20, §18

purified HLA DRB1 *0701 = purified HLA DRB1 *0701 (Homo sapiens, UniProt P01903+P01911, A100R/A102G/A103Q/D57E/D86V/E43K/F76Y/K127E/L162R/M171V/P40G/Q125H/Q99D/R33Q/R42Y/R54Q/S133A/S66F/T210M/V115G/Y107V/Y59L/Y89S); assay: IC50nM to purified HLA | DRB1 *0701
Experimental: as §19
Head of the field: IC50nM to purified HLA | DRB1 *0701
as §20
Where the first naming reader finds the target: head: IC50nM to purified HLA | DRB1 *0701

purified HLA DRB1 *0802 = purified HLA DRB1 *0802 (Homo sapiens, UniProt P01903+P01911, A100R/A103L/A169T/F76Y/H45Y/I96F/K41T/L162R/M171V/P40S/Q125H/Q178H/Q39Y/Q99D/R218S/R42G/S66Y/V115G/W38E); assay: IC50nM to purified HLA | DRB1 *0802
Experimental: as §19, §7, §20, §8

purified HLA DRB1 *1501 = purified HLA DRB1 *1501 (Homo sapiens, UniProt P01903+P01911); assay: IC50nM to purified HLA | DRB1 *1501
Experimental: as §19, §9, §20, §10

purified HLA DRB4 *0101 = purified HLA DRB4 *0101 (Homo sapiens, UniProt P01903+P13762, G164S); assay: IC50nM to purified HLA | DRB4 *0101
purified HLA DRB4 *0101, sequence (P01903 26-254 limits assumed): as the sequence (P01903 26-254 limits assumed, other chains not shown) above
purified HLA DRB4 *0101, sequence (P13762 whole entry G164S): as the sequence (P13762 whole entry G164S) above
Experimental: as §19, §11, §20, §12

purified HLA DRB1 *0405 = purified HLA DRB1 *0405 (Homo sapiens, UniProt P01903+P01911, A100R/A169T/D86S/F76Y/I96L/K127E/L162R/M171V/N62H/P40V/Q125Y/R42H/S133A/S149N/S66Y/V115G/V209L/W38E); assay: IC50nM to purified HLA | DRB1 *0405
Experimental: as §19, §13, §20, §14

purified HLA DRB5 *0101 = purified HLA DRB5 *0101 (Homo sapiens, UniProt P01903+Q30154); assay: IC50nM to purified HLA | DRB5 *0101
Experimental: as §19
(§21) Head of the field: IC50nM to purified HLA | DRB5 *0101
as §20
(§22) Where the first naming reader finds the target: head: IC50nM to purified HLA | DRB5 *0101

HLA DRB1 *1302 = HLA DRB1 *1302 (Homo sapiens, UniProt P01903+P01911, A100E/A169T/K41T/L162R/M171V/P40S/Q125H/Q178H/Q39Y/Q99D/R42S/S66N/T262R/V115G/W38E/Y61H); assay: IC50nM to purified HLA | DRB1 *1302
HLA DRB1 *1302, sequence (P01903 26-254 limits assumed, other chains not shown): as the sequence (P01903 26-254 limits assumed, other chains not shown) above
Experimental: as §1
Head of the field: IC50nM to purified HLA | DRB1 *1302
as §3
Where the first naming reader finds the target: head: IC50nM to purified HLA | DRB1 *1302

HLA DRB5 *0101 = HLA DRB5 *0101 (Homo sapiens, UniProt P01903+Q30154); assay: IC50nM to purified HLA | DRB5 *0101
Experimental: as §1, §21, §3, §22

Sequence	IC50 (HLA DRB1 *0101) [µM]	IC50 (HLA DRB1 *0301) [µM]	IC50 (HLA DRB1 *0802) [µM]	IC50 (HLA DRB1 *1101) [µM]	IC50 (HLA DRB1 *1501) [µM]	IC50 (HLA DRB4 *0101) [µM]	IC50 (HLA DRB1 *0405) [µM]	IC50 (HLA DRB1 *0401) [µM]	IC50 (HLA DRB1 *0404) [µM]	IC50 (HLA DRB1 *0901) [µM]	IC50 (purified HLA DRB1 *0101) [µM]	IC50 (purified HLA DRB1 *0301) [µM]	IC50 (purified HLA DRB1 *0401) [µM]	IC50 (purified HLA DRB1 *0404) [µM]	IC50 (purified HLA DRB1 *0701) [µM]	IC50 (purified HLA DRB1 *0802) [µM]	IC50 (purified HLA DRB1 *1501) [µM]	IC50 (purified HLA DRB4 *0101) [µM]	IC50 (purified HLA DRB1 *0405) [µM]	also measured
AAANFVAAWTLHAAA [SEQ ID NO: 51]	0.0045	0.147	0.013	0.011	0.01	0.253	0.0076													
AAAHFVAAFTLHAAA [SEQ ID NO: 28]	0.004	0.228	0.011	0.0081	0.013	0.1		0.0022	0.0031	0.024										
AAAFFVAAWTLHAAA [SEQ ID NO: 12]											0.0036	0.129	0.0022	0.0029	0.06	0.0078	0.025	0.44		
AAAYFVAAWTLHAAA [SEQ ID NO: 21]											0.0037	0.119			0.055	0.0097		0.279	0.0069	
AAAFFVAAYTLHAAA [SEQ ID NO: 13]											0.0044	0.151	0.0017	0.0023	0.054	0.0074	0.0048	0.805	0.019	IC50 (purified HLA DRB5 *0101): 0.011 µM
AAAHFVAAFTLKAEA [SEQ ID NO: 38]			0.019	0.041	0.031		0.0081	0.0064	0.0081	0.046										IC50 (HLA DRB1 *1302): 0.801 µM; IC50 (HLA DRB5 *0101): 0.019 µM
